Experimental data published in PubChem BioAssay AID248 (DTP/NCI, 2004).
Toxic doses and inconclusive results are not listed. No stated cut-off is given here; in the data, active means T/C of 150% or more; inactive means T/C below 125%. Square brackets hold non-standard residues; d marks the D form. Peptide text beside a SMILES is read from it. ξ: configuration not given here. ξE = NC(CCC(=O)O)C(=O)O

System: L1210 leukemia ip in BDF1 mice, survival T/C
Assay: NCI In Vivo Anticancer Drug Screen. Data for tumor model L1210 Leukemia (intraperitoneal) in B6D2F1 (BDF1) mice
Conditions: endpoint: mean survival time, higher = longer survival
In short: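 Read-out is survival time, reported as the treated-group measurement over the vehicle-control measurement.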

[1] = dose: 100.0 mg/kg/injection, schedule: Q04DX003 (ip), vehicle: saline with Tween-80
[2] = dose: 200.0 mg/kg/injection, schedule: Q04DX003 (ip), vehicle: saline with Tween-80
[3] = dose: 100.0 mg/kg/injection, schedule: Q04DX002 (ip), vehicle: Klucel (hydroxypropylcellulose) (HPC)
[4] = dose: 200.0 mg/kg/injection, schedule: Q04DX002 (ip), vehicle: Klucel (hydroxypropylcellulose) (HPC)
[5] = dose: 400.0 mg/kg/injection, schedule: Q04DX002 (ip), vehicle: Klucel (hydroxypropylcellulose) (HPC)
[6] = dose: 100.0 mg/kg/injection, schedule: Q01DX001 (ip), vehicle: saline
[7] = dose: 200.0 mg/kg/injection, schedule: Q01DX001 (ip), vehicle: saline
[8] = dose: 400.0 mg/kg/injection, schedule: Q01DX001 (ip), vehicle: saline
[9] = dose: 100.0 mg/kg/injection, schedule: Q04DX002 (ip), vehicle: saline
[10] = dose: 200.0 mg/kg/injection, schedule: Q04DX002 (ip), vehicle: saline

Measured: T/C

COC1/C=C/OC2(C)Oc3c(C)c(O)c4c(O)c(c(/C=N/NC5CCCCCCCCCCCCCC5)c(O)c4c3C2=O)NC(=O)/C(C)=C\C=C\C(C)C(O)C(C)C(O)C(C)C(OC(C)=O)C1C (stereo not given)
inactive: dose: 100.0 mg/kg/injection, schedule: Q01DX003 (ip), vehicle: saline with Tween-80 95 % of control | dose: 200.0 mg/kg/injection, schedule: Q01DX003 (ip), vehicle: saline with Tween-80 95 % of control | dose: 400.0 mg/kg/injection, schedule: Q01DX003 (ip), vehicle: saline with Tween-80 102 % of control

[N-]=[N+]=Nc1ccc(-c2nc(N)nc(N)n2)cc1
inactive: dose: 50.0 mg/kg/injection, schedule: Q01DX009 (ip), vehicle: saline 90 % of control | dose: 100.0 mg/kg/injection, schedule: Q01DX009 (ip), vehicle: saline 90 % of control | dose: 100.0 mg/kg/injection, schedule: Q04DX003 (ip), vehicle: acetone 100 % of control | dose: 200.0 mg/kg/injection, schedule: Q01DX009 (ip), vehicle: saline 98 % of control | dose: 200.0 mg/kg/injection, schedule: Q04DX003 (ip), vehicle: acetone 97 % of control | dose: 400.0 mg/kg/injection, schedule: Q04DX003 (ip), vehicle: acetone 90 % of control

CC1(C)C/C(=C\c2ccccc2)C(=O)c2ccccc21
inactive: [1] 107 % of control | [2] 96 % of control | dose: 400.0 mg/kg/injection, schedule: Q04DX003 (ip), vehicle: saline with Tween-80 96 % of control

Cn1cnc([N+](=O)[O-])c1C(N)=O
inactive: [3] 88 % of control | [4] 95 % of control | [5] 88 % of control

COc1ccc(OC)c2[nH]c(=O)c(CCC(=O)O)nc12
inactive: dose: 100.0 mg/kg/injection, schedule: Q04DX003 (ip), vehicle: other 96 % of control | dose: 200.0 mg/kg/injection, schedule: Q04DX003 (ip), vehicle: other 96 % of control

CCC(=O)Cc1ccc2[nH]c(C)cc(=O)c2c1
inactive: [6] 96 % of control | [7] 98 % of control | [8] 88 % of control

O=C(/C(=N/OCc1ccccc1)c1ccccc1)c1ccccc1
inactive: [6] 102 % of control | [7] 102 % of control | [8] 98 % of control

CCOC(=O)c1ccc(NCc2nnc3nc(N)nc(SCc4ccccc4)c3n2)cc1
inactive: dose: 100.0 mg/kg/injection, schedule: Q01DX001 (ip), vehicle: saline with Tween-80 96 % of control | dose: 200.0 mg/kg/injection, schedule: Q01DX001 (ip), vehicle: saline with Tween-80 98 % of control | dose: 400.0 mg/kg/injection, schedule: Q01DX001 (ip), vehicle: saline with Tween-80 92 % of control

C=C1CCOC2(C(O)C(C)(O)CO)NC(=O)C1(O)NC2=O (stereo not given)
inactive: [9] 96 % of control | [10] 107 % of control | dose: 400.0 mg/kg/injection, schedule: Q04DX002 (ip), vehicle: saline 104 % of control

O=C(O)C(Cc1ccc(O)cc1)NC(=O)N(c1ccccc1)c1ccccc1 (stereo not given)
inactive: [6] 95 % of control | [7] 103 % of control | [8] 106 % of control

CC12CCC(O)CC1=CCC1C2CCC2(C)C1CCC2(O)C#CCN(CCCl)CCCl (stereo not given)
inactive: dose: 50.0 mg/kg/injection, schedule: Q04DX003 (sc), vehicle: steriod suspending solution 93 % of control | dose: 100.0 mg/kg/injection, schedule: Q04DX003 (sc), vehicle: steriod suspending solution 112 % of control | dose: 200.0 mg/kg/injection, schedule: Q04DX003 (sc), vehicle: steriod suspending solution 100 % of control | dose: 400.0 mg/kg/injection, schedule: Q04DX003 (sc), vehicle: steriod suspending solution 99 % of control

CCOC(=O)c1c(-c2ccccc2)csc1N
inactive: dose: 50.0 mg/kg/injection, schedule: Q04DX003 (ip), vehicle: saline with Tween-80 97 % of control | [1] 94 % of control | [2] 90 % of control

COC(=O)C(CC/C(=N\NC(N)=O)c1ccccc1)C(=O)OC
inactive: dose: 50.0 mg/kg/injection, schedule: Q01DX009 (ip), vehicle: saline with Tween-80 98 % of control | dose: 100.0 mg/kg/injection, schedule: Q01DX009 (ip), vehicle: saline with Tween-80 98 % of control | dose: 200.0 mg/kg/injection, schedule: Q01DX009 (ip), vehicle: saline with Tween-80 91 % of control

CCCCC(CC)(CC)OC(=O)c1ccc([N+](=O)[O-])cc1
inactive: dose: 100.0 mg/kg/injection, schedule: Q04DX002 (ip), vehicle: saline with Tween-80 87 % of control | dose: 200.0 mg/kg/injection, schedule: Q04DX002 (ip), vehicle: saline with Tween-80 106 % of control | dose: 400.0 mg/kg/injection, schedule: Q04DX002 (ip), vehicle: saline with Tween-80 98 % of control

O=C1NCC(Nc2ccc(Cl)cc2)C(=O)N1 (stereo not given)
inactive: dose: 100.0 mg/kg/injection, schedule: Q01DX Z (ip), vehicle: methylcellulose (MC) 89 % of control | dose: 200.0 mg/kg/injection, schedule: Q01DX Z (ip), vehicle: methylcellulose (MC) 92 % of control

CN=C(NC)N(C)/N=C/C(C)=N/N(C)C(=NC)NC
inactive: dose: 15.0 mg/kg/injection, schedule: Q01DX Z (ip), vehicle: methylcellulose (MC) 95 % of control | dose: 30.0 mg/kg/injection, schedule: Q01DX Z (ip), vehicle: methylcellulose (MC) 101 % of control | dose: 60.0 mg/kg/injection, schedule: Q01DX Z (ip), vehicle: methylcellulose (MC) 101 % of control | dose: 60.0 mg/kg/injection, schedule: Q01DX Z (oral), vehicle: methylcellulose (MC) 104 % of control | dose: 120.0 mg/kg/injection, schedule: Q01DX Z (oral), vehicle: methylcellulose (MC) 93 % of control | dose: 240.0 mg/kg/injection, schedule: Q01DX Z (oral), vehicle: methylcellulose (MC) 91 % of control | dose: 480.0 mg/kg/injection, schedule: Q01DX Z (oral), vehicle: methylcellulose (MC) 110 % of control | dose: 720.0 mg/kg/injection, schedule: Q01DX Z (oral), vehicle: methylcellulose (MC) 108 % of control

COC(=O)c1cc(Cl)cc(N)c1Cl
inactive: [3] 98 % of control | [4] 98 % of control | [5] 91 % of control

NCC(=O)NC(CCC(=O)O)C(=O)O (stereo not given) (H-Gly-[ξE]-OH)
inactive: dose: 50.0 mg/kg/injection, schedule: Q04DX002 (ip), vehicle: saline 89 % of control | [9] 104 % of control | [10] 93 % of control

Nc1nc2c([nH]c(=O)n2C2OC(CO)C(O)C2O)c(=O)n1N (stereo not given)
inactive: [6] 102 % of control | [7] 101 % of control | [8] 96 % of control

COc1ccc(C2C(c3ccccc3)C=CC(c3ccccc3)C2[N+](=O)[O-])cc1OC (stereo not given)
inactive: dose: 100.0 mg/kg/injection, schedule: Q01DX001 (ip), vehicle: carboxymethylcellulose (CMC) 94 % of control | dose: 200.0 mg/kg/injection, schedule: Q01DX001 (ip), vehicle: carboxymethylcellulose (CMC) 110 % of control | dose: 400.0 mg/kg/injection, schedule: Q01DX001 (ip), vehicle: carboxymethylcellulose (CMC) 94 % of control

CC(C)C1(C)C(=O)N(C)C(=O)N1Br (stereo not given)
inactive: dose: 50.0 mg/kg/injection, schedule: Q01DX009 (ip), vehicle: Klucel (hydroxypropylcellulose) (HPC) 102 % of control | dose: 50.0 mg/kg/injection, schedule: Q04DX003 (ip), vehicle: Klucel (hydroxypropylcellulose) (HPC) 100 % of control | dose: 100.0 mg/kg/injection, schedule: Q01DX001 (ip), vehicle: Klucel (hydroxypropylcellulose) (HPC) 107 % of control | dose: 100.0 mg/kg/injection, schedule: Q01DX009 (ip), vehicle: Klucel (hydroxypropylcellulose) (HPC) 96 % of control | dose: 100.0 mg/kg/injection, schedule: Q04DX003 (ip), vehicle: Klucel (hydroxypropylcellulose) (HPC) 97 % of control | dose: 200.0 mg/kg/injection, schedule: Q01DX001 (ip), vehicle: Klucel (hydroxypropylcellulose) (HPC) 98 % of control | dose: 200.0 mg/kg/injection, schedule: Q04DX003 (ip), vehicle: Klucel (hydroxypropylcellulose) (HPC) 105 % of control | dose: 400.0 mg/kg/injection, schedule: Q01DX001 (ip), vehicle: Klucel (hydroxypropylcellulose) (HPC) 98 % of control
